Experimental data from PubChem BioAssay AID2060499 (Molecular Pharmacology Branch, DTP, NCI, 2025).

System: 777334-354-R2-J4-PDC tumor spheroids with HUVEC/MSC, viability
Experiment: Anticancer human tumor 777334-354-R2-J4-PDC patient-derived pancreatic adenocarcinoma cell line growth inhibition [GQUAD]
Conditions: for IC50: curve of first compound; for viability, T/C: stronger effect = lower value
In short: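 Viability of tumor cells grown as complex spheroids with endothelial and stromal cells, exposed to drug combinations. Top concentration at or near clinical Cmax (else 10 microM), diluted in half-log increments.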

[1] = second compound 0.0316 µM, first compound 0.0316 µM
[2] = second compound 0.0316 µM, first compound 0.1 µM
[3] = second compound 0.0316 µM, first compound 0.316 µM
[4] = second compound 0.0316 µM, first compound 1 µM
[5] = second compound 0.0316 µM, first compound 3.16 µM
[6] = second compound 0.0316 µM, first compound 10 µM
[7] = second compound 0.1 µM, first compound 0.0316 µM
[8] = second compound 0.1 µM, first compound 0.1 µM
[9] = second compound 0.1 µM, first compound 0.316 µM
[10] = second compound 0.1 µM, first compound 1 µM
[11] = second compound 0.1 µM, first compound 3.16 µM
[12] = second compound 0.1 µM, first compound 10 µM
[13] = second compound 0.316 µM, first compound 0.0316 µM
[14] = second compound 0.316 µM, first compound 0.1 µM
[15] = second compound 0.316 µM, first compound 0.316 µM
[16] = second compound 0.316 µM, first compound 1 µM
[17] = second compound 0.316 µM, first compound 3.16 µM
[18] = second compound 0.316 µM, first compound 10 µM
[19] = second compound 1 µM, first compound 0.0316 µM
[20] = second compound 1 µM, first compound 0.1 µM
[21] = second compound 1 µM, first compound 0.316 µM
[22] = second compound 1 µM, first compound 1 µM
[23] = second compound 1 µM, first compound 3.16 µM
[24] = second compound 1 µM, first compound 10 µM
[25] = second compound 3.16 µM, first compound 0.0316 µM
[26] = second compound 3.16 µM, first compound 0.1 µM
[27] = second compound 3.16 µM, first compound 0.316 µM
[28] = second compound 3.16 µM, first compound 1 µM
[29] = second compound 3.16 µM, first compound 3.16 µM
[30] = second compound 3.16 µM, first compound 10 µM
[31] = second compound 10 µM, first compound 0.0316 µM
[32] = second compound 10 µM, first compound 0.1 µM
[33] = second compound 10 µM, first compound 0.316 µM
[34] = second compound 10 µM, first compound 1 µM
[35] = second compound 10 µM, first compound 3.16 µM
[36] = second compound 10 µM, first compound 10 µM
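Also: spheroids exposed to compounds for 7 days before readout.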

Structure (SMILES): COc1ncnc(C2CC2)c1-c1ncc2cnn(Cc3ccc(-c4nc(C(F)(F)F)cn4C(C)C)cc3)c2n1 + Cc1[nH]c2ccc(F)cc2c1-c1nc2c3cccnc3c3ncccc3c2[nH]1
- IC50 (second compound 0.0316 µM): > 10000 nM
- IC50 (second compound 0.1 µM): > 10000 nM
- IC50 (second compound 0.316 µM): > 10000 nM
- IC50 (second compound 1 µM): > 10000 nM
- IC50 (second compound 3.16 µM): 127 nM
- IC50 (second compound 10 µM): < 31.6 nM
- viability, T/C [1]: 104%
- viability, T/C [2]: 96.9%
- viability, T/C [3]: 103%
- viability, T/C [4]: 91.4%
- viability, T/C [5]: 83%
- viability, T/C [6]: 112%
- viability, T/C [7]: 102%
- viability, T/C [8]: 89.4%
- viability, T/C [9]: 100%
- viability, T/C [10]: 92.1%
- viability, T/C [11]: 89%
- viability, T/C [12]: 105%
- viability, T/C [13]: 93%
- viability, T/C [14]: 85%
- viability, T/C [15]: 96.7%
- viability, T/C [16]: 85.4%
- viability, T/C [17]: 93.1%
- viability, T/C [18]: 110%
- viability, T/C [19]: 81.9%
- viability, T/C [20]: 88.3%
- viability, T/C [21]: 90.5%
- viability, T/C [22]: 79.6%
- viability, T/C [23]: 91%
- viability, T/C [24]: 79.3%
- viability, T/C [25]: 56.1%
- viability, T/C [26]: 58.8%
- viability, T/C [27]: 37.6%
- viability, T/C [28]: 43.5%
- viability, T/C [29]: 49.3%
- viability, T/C [30]: 49.7%
- viability, T/C [31]: 39.7%
- viability, T/C [32]: 35.3%
- viability, T/C [33]: 38.2%
- viability, T/C [34]: 18.8%
- viability, T/C [35]: 33.3%
- viability, T/C [36]: 35.7%

Structure (SMILES): CC1COCCN1c1cc(-c2ccnn2C)c2ccnc(-c3ccn[nH]3)c2n1 (stereo unspecified) + Cc1[nH]c2ccc(F)cc2c1-c1nc2c3cccnc3c3ncccc3c2[nH]1
- IC50 (second compound 0.0316 µM): 894 nM
- IC50 (second compound 0.1 µM): 834 nM
- IC50 (second compound 0.316 µM): 483 nM
- IC50 (second compound 1 µM): 479 nM
- IC50 (second compound 3.16 µM): < 31.6 nM
- IC50 (second compound 10 µM): < 31.6 nM
- viability, T/C [1]: 91.3%
- viability, T/C [2]: 74.2%
- viability, T/C [3]: 62.4%
- viability, T/C [4]: 44.4%
- viability, T/C [5]: 44%
- viability, T/C [6]: 31.1%
- viability, T/C [7]: 93.7%
- viability, T/C [8]: 67.1%
- viability, T/C [9]: 63.5%
- viability, T/C [10]: 46.4%
- viability, T/C [11]: 41.5%
- viability, T/C [12]: 29.4%
- viability, T/C [13]: 90.9%
- viability, T/C [14]: 79.6%
- viability, T/C [15]: 48.7%
- viability, T/C [16]: 46.6%
- viability, T/C [17]: 39.5%
- viability, T/C [18]: 29.7%
- viability, T/C [19]: 68.7%
- viability, T/C [20]: 65.2%
- viability, T/C [21]: 53.2%
- viability, T/C [22]: 39.9%
- viability, T/C [23]: 35.6%
- viability, T/C [24]: 19.1%
- viability, T/C [25]: 26.4%
- viability, T/C [26]: 23.9%
- viability, T/C [27]: 18.9%
- viability, T/C [28]: 11.1%
- viability, T/C [29]: 8.41%
- viability, T/C [30]: 8.24%
- viability, T/C [31]: 33.5%
- viability, T/C [32]: 19.5%
- viability, T/C [33]: 14.9%
- viability, T/C [34]: 11.7%
- viability, T/C [35]: 12.7%
- viability, T/C [36]: 11.6%

Structure (SMILES): CC(C)(O)C1CCC(Nc2ccc3ncc(-c4cccc(C(F)(F)F)c4)n3n2)CC1 (stereo unspecified) + Cc1cnc(CNC(=O)c2c(=O)c3ccc(N4CCCN(C)CC4)nc3n3c2sc2ccccc23)cn1
- IC50 (second compound 0.0316 µM): 880 nM
- IC50 (second compound 0.1 µM): 806 nM
- IC50 (second compound 0.316 µM): 838 nM
- IC50 (second compound 1 µM): 913 nM
- IC50 (second compound 3.16 µM): 776 nM
- IC50 (second compound 10 µM): < 31.6 nM
- viability, T/C [1]: 105%
- viability, T/C [2]: 74%
- viability, T/C [3]: 94.5%
- viability, T/C [4]: 44.8%
- viability, T/C [5]: 27.7%
- viability, T/C [6]: 35.2%
- viability, T/C [7]: 85%
- viability, T/C [8]: 74%
- viability, T/C [9]: 79.5%
- viability, T/C [10]: 43.2%
- viability, T/C [11]: 29.1%
- viability, T/C [12]: 35.4%
- viability, T/C [13]: 80.8%
- viability, T/C [14]: 71.5%
- viability, T/C [15]: 71.5%
- viability, T/C [16]: 46.5%
- viability, T/C [17]: 29.1%
- viability, T/C [18]: 31.3%
- viability, T/C [19]: 63%
- viability, T/C [20]: 67.4%
- viability, T/C [21]: 67%
- viability, T/C [22]: 48.6%
- viability, T/C [23]: 33%
- viability, T/C [24]: 30.7%
- viability, T/C [25]: 61.4%
- viability, T/C [26]: 68.9%
- viability, T/C [27]: 56.9%
- viability, T/C [28]: 48.4%
- viability, T/C [29]: 24.4%
- viability, T/C [30]: 23.9%
- viability, T/C [31]: 51.5%
- viability, T/C [32]: 40.1%
- viability, T/C [33]: 48.3%
- viability, T/C [34]: 36.1%
- viability, T/C [35]: 0.23%
- viability, T/C [36]: 0.19%
